Key:
Candida albicans = experiment: Growth inhibition of Candida albicans JRW#5; type: functional, organism-based
Erythrocyte = experiment: Hemolytic activity in human erythrocytes at 1 mM; type: functional
CHO [1] = experiment: Cytotoxicity against CHO cells at 0.1 mM after 3 days relative to control; type: cell-based, Cricetulus griseus; conditions: chinese hamster, 72 h, 100 µM
CHO [2] = experiment: Cytotoxicity against CHO cells at 1.0 mM after 3 days relative to control; type: cell-based, Cricetulus griseus; conditions: chinese hamster, 72 h, 1000 µM

SMILES	IC50 (Candida albicans) [µM]	Activity (Erythrocyte) [%]	Activity (CHO [1])	Activity (CHO [2])
C[C@H]1OO[C@@H](COC(=O)CC23CC4CC(CC(C4)C2)C3)[C@@H]2O[C@@H]21	> 1000	–	–	–
C[C@@H]1C=C[C@H](COC(=O)CC23CC4CC(CC(Br)(C4)C2)C3)OO1	250	–	–	–
C1CCC(C[C@H]2OOC[C@H]3O[C@@H]23)CC1	125	–	–	–
CCCCCCC[C@H]1OOC[C@H]2O[C@@]12CCCCCC	> 1000	–	–	–
C[C@@H]1C=C[C@H](COC(=O)C23CC4CC(CC(C4)C2)C3)OO1	125	–	–	–
CCCCCCC[C@@H]1C=C[C@H](CCC)OO1	250	86	–	–
C[C@@H]1C=C[C@H](COC(=O)CC23CC4CC(CC(C4)C2)C3)OO1	125	–	–	–
CCCCCCC[C@H]1OOC[C@@H]2O[C@@]21CCCCCC	> 1000	–	–	–
c1ccc(COC[C@@H]2OO[C@H](COCc3ccccc3)[C@@H]3O[C@@H]32)cc1	63	1	Active	–
C[C@H]1OO[C@@H](COC(=O)CC23CC4CC(CC(Br)(C4)C2)C3)[C@@H]2O[C@@H]21	> 1000	–	–	–
CCCCCC[C@@]12COOC[C@@H]1O2	500	31	–	–
C1CCC(C[C@H]2OOC[C@@H]3O[C@@H]32)CC1	125	–	–	–
C[C@H]1OO[C@@H](COC(=O)CC23CC4CC(CC(Br)(C4)C2)C3)[C@H]2O[C@H]21	> 1000	–	–	–
c1ccc([C@H]2OO[C@@H](c3ccccc3)[C@@H]3O[C@@H]32)cc1	500	–	–	–
C1CC2OOC1C1OC21 (stereo not drawn)	16	0	Active	Active
C[C@H]1OO[C@@H](COC(=O)C23CC4CC(CC(C4)C2)C3)[C@@H]2O[C@@H]21	250	–	–	–
C1C2CC3CC1CC([C@@]14COOC[C@@H]1O4)(C2)C3	125	–	–	–
CCCCCCC[C@H]1OO[C@@H](CCC)[C@@H]2O[C@@H]21	500	45	–	–
c1ccc(COC[C@@H]2OO[C@H](COCc3ccccc3)[C@H]3O[C@H]32)cc1	250	–	–	–
CCCCCCC1=CCOOC1	250	61	–	–
C[C@@H]1C=C[C@H](CO)OO1	16	0	Active	–
C1=C[C@@H](C23CC4CC(CC(C4)C2)C3)OOC1	31	100	–	–
C1C2CC3CC1CC([C@@H]1OO[C@H](C45CC6CC(CC(C6)C4)C5)[C@H]4O[C@H]41)(C2)C3	> 1000	–	–	–
C[C@@H]1C=C[C@H](CCCO)OO1	250	–	–	–

SMILES	IC50 (Candida albicans) [µM]	Activity (Erythrocyte) [%]	Activity (CHO [1])	Activity (CHO [2])
C1C2CC3CC1CC(C[C@H]1OOC[C@H]4O[C@@H]14)(C2)C3	125	–	–	–
C1=C[C@@H](CC2CCCCC2)OOC1	125	–	–	–
CCCCCCC[C@H]1OOC[C@@H]2O[C@@H]21	63	33	–	–
C1C2CC3CC1CC([C@H]1OOC[C@@H]4O[C@@H]41)(C2)C3	31	41	–	–
C[C@H]1OO[C@@H](CO)[C@@H]2O[C@@H]21	> 1000	–	–	–
CCCCCCC[C@@H]1C=CCOO1	63	60	–	–
CCCCCCC[C@H]1OOC[C@H]2O[C@@H]12	63	–	–	–
C1=C[C@@H](COCc2ccccc2)OO[C@H]1COCc1ccccc1	16	2	–	Active
C1=C(C2CCCCC2)COOC1	63	–	–	–
C[C@H]1OO[C@@H](COC(=O)CC23CC4CC(CC(C4)C2)C3)[C@H]2O[C@H]21	250	–	–	–
C1CCC([C@@]23COOC[C@@H]2O3)CC1	500	–	–	–
C[C@H]1OO[C@@H](CCCO)[C@@H]2O[C@@H]21	> 1000	–	–	–
C1=C[C@@H](CC23CC4CC(CC(C4)C2)C3)OOC1	125	–	–	–
CCCCCCC[C@H]1OO[C@@H](CCC)[C@H]2O[C@H]21	500	25	–	–
C1=C(C23CC4CC(CC(C4)C2)C3)COOC1	63	–	–	–
C[C@H]1OO[C@@H](COC(=O)C23CC4CC(CC(C4)C2)C3)[C@H]2O[C@H]21	125	–	–	–
C[C@H]1OO[C@@H](COCc2ccccc2)[C@@H]2O[C@@H]21 (single isomer, unassigned)	125	–	–	–
C[C@@H]1C=C[C@H](COCc2ccccc2)OO1	250	–	–	–
C1=C[C@H](C23CC4CC(CC(C4)C2)C3)OO[C@@H]1C12CC3CC(CC(C3)C1)C2	> 1000	–	–	–
C[C@H]1OO[C@@H](COCc2ccccc2)[C@H]2O[C@H]21	63	–	–	–
C1=C[C@H](c2ccccc2)OO[C@@H]1c1ccccc1	31	–	Active	Active
CCCCCCC[C@H]1OOCC=C1CCCCCC	250	–	–	–
C[C@@H]1[C@H](O)[C@@H](C)/C=C/C=C/C=C/C=C/C=C/C=C/C=C/[C@H](O[C@@H]2O[C@H](C)[C@@H](O)[C@H](N)[C@@H]2O)C[C@@H]2O[C@](O)(C[C@@H](O)C[C@@H](O)[C@H](O)CC[C@@H](O)C[C@@H](O)CC(=O)O[C@H]1C)C[C@H](O)[C@H]2C(=O)O [AMPHOTERICIN B]	< 0.5	–	–	–
C1C2CC3CC1CC(C[C@H]1OOC[C@@H]4O[C@@H]41)(C2)C3	125	–	–	–

— ChEMBL document CHEMBL1144542, “Design of endoperoxides with anti-Candida activity” (Bioorg Med Chem, 2007)
